Measured values from ChEMBL document CHEMBL1201862, “PubChem BioAssay data set” (2004).
Activity calls are given as the source filed them.

How the values were obtained:
[1] = target: Cytochrome P450 2C9 (Homo sapiens, UniProt P11712)
[2] = target: Cytochrome P450 2D6 (Homo sapiens, UniProt P10635);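 further: CYP2D6 member of a cytochrome P450 panel assay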
[3] = target: T1, Cytochrome P450 1A2 (Homo sapiens, UniProt P05177);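 further: PubChem cytochrome P450 panel assay, CYP1A2 panel member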
T1 sequence (P05177 whole entry): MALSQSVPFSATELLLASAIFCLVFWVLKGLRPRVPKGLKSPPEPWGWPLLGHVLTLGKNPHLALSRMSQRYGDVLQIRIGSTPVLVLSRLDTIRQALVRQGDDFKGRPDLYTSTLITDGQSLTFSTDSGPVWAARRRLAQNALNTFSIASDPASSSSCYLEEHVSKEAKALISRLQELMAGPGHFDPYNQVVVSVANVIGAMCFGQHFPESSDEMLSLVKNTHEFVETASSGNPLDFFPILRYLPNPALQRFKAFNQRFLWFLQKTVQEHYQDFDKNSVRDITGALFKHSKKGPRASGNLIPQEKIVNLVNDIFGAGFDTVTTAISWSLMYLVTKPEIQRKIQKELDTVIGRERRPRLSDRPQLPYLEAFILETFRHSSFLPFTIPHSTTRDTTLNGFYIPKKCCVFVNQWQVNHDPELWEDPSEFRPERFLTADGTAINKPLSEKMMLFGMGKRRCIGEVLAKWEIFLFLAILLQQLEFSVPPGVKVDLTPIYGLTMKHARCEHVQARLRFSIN

[4] = target: Cytochrome P450 3A4 (Homo sapiens, UniProt P08684);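 further: CYP3A4 tested as one member of a cytochrome P450 panel screen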
Chain of Cytochrome P450 3A4 (P08684 whole entry): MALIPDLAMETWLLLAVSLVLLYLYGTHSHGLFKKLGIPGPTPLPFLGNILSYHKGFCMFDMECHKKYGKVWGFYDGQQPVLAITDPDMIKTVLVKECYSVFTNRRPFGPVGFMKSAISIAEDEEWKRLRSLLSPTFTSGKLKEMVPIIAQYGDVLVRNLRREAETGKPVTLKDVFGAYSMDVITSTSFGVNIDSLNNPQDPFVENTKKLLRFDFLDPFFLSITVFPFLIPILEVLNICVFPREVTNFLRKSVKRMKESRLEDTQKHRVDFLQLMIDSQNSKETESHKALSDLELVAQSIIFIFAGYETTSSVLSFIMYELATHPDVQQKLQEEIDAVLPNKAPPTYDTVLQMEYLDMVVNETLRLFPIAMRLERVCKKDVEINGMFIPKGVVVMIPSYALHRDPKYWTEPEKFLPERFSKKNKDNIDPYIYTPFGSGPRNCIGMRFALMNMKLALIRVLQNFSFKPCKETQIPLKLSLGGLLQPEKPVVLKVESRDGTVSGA

[5] = target: T2, Microphthalmia-associated transcription factor (Homo sapiens, UniProt O75030); assay: TRPM1 promoter luciferase signal decrease, dose response, MITF inhibitor project, cell-based, SK-MEL-5, cherry-picked, set 3 (AID 493073); type: functional
T2 sequence (O75030 whole entry): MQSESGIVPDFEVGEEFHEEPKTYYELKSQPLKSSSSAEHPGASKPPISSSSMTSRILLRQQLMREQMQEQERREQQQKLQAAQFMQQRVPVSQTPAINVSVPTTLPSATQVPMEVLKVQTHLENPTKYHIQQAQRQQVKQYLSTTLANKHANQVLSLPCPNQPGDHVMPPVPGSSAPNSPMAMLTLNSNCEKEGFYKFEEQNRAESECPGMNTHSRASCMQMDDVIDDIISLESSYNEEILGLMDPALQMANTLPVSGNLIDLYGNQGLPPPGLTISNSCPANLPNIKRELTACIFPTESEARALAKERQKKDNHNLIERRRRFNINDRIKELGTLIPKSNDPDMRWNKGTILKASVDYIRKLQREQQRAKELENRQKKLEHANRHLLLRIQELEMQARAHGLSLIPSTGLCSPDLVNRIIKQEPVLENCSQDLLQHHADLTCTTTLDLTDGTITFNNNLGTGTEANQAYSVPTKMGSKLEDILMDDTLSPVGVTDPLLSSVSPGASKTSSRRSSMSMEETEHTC

[6] = target: Intestinal-type alkaline phosphatase (Mus musculus, UniProt P24822); assay: PubChem AID 488874; type: functional
Chain of Intestinal-type alkaline phosphatase (Mus musculus, UniProt P24822) (P24822 whole entry): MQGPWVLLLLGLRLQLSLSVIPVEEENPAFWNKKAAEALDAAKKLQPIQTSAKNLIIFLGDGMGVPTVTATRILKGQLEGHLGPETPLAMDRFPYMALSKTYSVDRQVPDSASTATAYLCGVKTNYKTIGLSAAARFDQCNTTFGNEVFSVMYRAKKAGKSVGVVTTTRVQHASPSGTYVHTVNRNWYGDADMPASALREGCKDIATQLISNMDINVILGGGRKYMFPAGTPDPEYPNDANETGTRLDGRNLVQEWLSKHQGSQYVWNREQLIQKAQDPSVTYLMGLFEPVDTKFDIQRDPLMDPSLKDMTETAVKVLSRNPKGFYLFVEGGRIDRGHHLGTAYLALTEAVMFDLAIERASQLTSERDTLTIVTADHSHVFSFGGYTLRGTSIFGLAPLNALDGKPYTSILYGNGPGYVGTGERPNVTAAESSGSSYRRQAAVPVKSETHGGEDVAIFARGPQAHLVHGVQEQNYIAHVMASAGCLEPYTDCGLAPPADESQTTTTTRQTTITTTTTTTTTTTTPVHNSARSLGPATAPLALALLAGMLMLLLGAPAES

[7] = target: T3, Endoribonuclease toxin MazF (Escherichia coli K-12, UniProt P0AE70); assay: fluorescent RNA oligo signal without MazF, dose response, counter-screen for MazEF activator project, biochemical, fluorescence, single-stranded RNase substrate (AID 588502); type: functional
T3 sequence (P0AE70 whole entry): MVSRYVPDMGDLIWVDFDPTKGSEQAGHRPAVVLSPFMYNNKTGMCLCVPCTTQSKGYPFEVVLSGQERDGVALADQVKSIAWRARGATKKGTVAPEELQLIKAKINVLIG

[8] = target: T4, Intestinal-type alkaline phosphatase (Homo sapiens, UniProt P09923); assay: human IAP inhibitors, dose response, biochemical, luminescent, uHTS hits, set 2 (AID 488793); type: functional
T4 sequence (P09923 whole entry): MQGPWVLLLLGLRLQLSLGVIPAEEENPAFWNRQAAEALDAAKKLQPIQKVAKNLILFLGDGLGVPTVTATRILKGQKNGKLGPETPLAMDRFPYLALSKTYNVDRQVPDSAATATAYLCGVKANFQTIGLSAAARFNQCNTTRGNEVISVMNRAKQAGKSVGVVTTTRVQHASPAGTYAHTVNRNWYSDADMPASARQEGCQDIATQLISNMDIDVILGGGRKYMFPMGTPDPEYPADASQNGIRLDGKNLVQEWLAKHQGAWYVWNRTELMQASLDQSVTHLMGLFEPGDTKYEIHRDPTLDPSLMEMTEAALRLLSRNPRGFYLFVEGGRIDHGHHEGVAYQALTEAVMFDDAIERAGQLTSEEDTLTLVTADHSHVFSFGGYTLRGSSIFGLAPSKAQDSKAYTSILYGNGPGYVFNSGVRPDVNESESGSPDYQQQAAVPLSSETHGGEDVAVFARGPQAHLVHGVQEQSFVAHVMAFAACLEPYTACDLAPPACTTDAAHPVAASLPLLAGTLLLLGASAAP

[9] = target: T5, Alkaline phosphatase, tissue-nonspecific isozyme (Homo sapiens, UniProt P05186); assay: inhibition of tissue-nonspecific alkaline phosphatase – biochemical, dose response (AID 488882); type: functional
T5 sequence (P05186 whole entry): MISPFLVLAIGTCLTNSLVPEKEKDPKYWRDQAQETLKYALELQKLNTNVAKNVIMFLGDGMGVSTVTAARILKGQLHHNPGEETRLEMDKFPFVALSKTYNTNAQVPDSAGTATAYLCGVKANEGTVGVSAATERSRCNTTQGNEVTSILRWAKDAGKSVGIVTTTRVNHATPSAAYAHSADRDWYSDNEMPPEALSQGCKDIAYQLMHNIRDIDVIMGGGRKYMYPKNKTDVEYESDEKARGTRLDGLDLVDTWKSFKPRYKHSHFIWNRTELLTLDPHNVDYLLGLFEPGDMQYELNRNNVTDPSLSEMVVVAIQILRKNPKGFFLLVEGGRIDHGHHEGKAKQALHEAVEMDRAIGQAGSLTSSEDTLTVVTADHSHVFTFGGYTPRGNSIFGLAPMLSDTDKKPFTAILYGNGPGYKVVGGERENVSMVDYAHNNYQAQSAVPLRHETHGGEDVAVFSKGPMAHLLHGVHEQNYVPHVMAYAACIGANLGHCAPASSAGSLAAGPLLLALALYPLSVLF

[10] = target: T3, Endoribonuclease toxin MazF; assay: MazF toxin RNase activators, dose response, biochemical, fluorescence, single-stranded RNA substrate, uHTS hits (AID 588481); type: functional
[11] = target: T4, Intestinal-type alkaline phosphatase; assay: Dose Response confirmation of uHTS hits from a small molecule inhibitors of human intestinal alkaline phosphatase via a luminescent assay. [Related pubchem assays (depositor defined):AID2544, AID2574]; type: functional
[12] = target: Dual specificity tyrosine-phosphorylation-regulated kinase 1A (Rattus norvegicus, UniProt Q63470); type: biochemical, Homo sapiens
[13] = target: T6, Rac GTPase-activating protein 1 (Homo sapiens, UniProt Q9H0H5); assay: MgcRacGAP GTPase-activating activity inhibitors, confirmation, biochemical, ADP Hunter fluorescence, primary and confirmatory (AID 624330); type: functional
T6 sequence (Q9H0H5 whole entry): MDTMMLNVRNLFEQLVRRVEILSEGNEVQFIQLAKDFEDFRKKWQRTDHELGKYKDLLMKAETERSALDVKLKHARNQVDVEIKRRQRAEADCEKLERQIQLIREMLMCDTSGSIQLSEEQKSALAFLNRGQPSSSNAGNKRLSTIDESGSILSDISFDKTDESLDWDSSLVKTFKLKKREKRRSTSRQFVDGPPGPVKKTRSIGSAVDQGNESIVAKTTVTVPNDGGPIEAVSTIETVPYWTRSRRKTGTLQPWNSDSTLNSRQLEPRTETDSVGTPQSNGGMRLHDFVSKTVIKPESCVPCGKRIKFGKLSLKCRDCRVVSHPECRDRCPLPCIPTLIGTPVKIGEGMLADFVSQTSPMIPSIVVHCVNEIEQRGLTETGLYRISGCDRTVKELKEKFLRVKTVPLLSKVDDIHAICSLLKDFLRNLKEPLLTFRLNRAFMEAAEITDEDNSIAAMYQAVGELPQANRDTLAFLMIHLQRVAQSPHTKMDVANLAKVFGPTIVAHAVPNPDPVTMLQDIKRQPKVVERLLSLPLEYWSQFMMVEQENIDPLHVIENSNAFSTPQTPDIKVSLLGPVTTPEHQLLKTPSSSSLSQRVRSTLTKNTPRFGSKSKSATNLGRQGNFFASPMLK

[14] = target: T7, Delta-type opioid receptor (Homo sapiens, UniProt P41143); assay: DOR antagonists, SAR follow-up, image-based (AID 2357); type: functional
T7 sequence (P41143 whole entry): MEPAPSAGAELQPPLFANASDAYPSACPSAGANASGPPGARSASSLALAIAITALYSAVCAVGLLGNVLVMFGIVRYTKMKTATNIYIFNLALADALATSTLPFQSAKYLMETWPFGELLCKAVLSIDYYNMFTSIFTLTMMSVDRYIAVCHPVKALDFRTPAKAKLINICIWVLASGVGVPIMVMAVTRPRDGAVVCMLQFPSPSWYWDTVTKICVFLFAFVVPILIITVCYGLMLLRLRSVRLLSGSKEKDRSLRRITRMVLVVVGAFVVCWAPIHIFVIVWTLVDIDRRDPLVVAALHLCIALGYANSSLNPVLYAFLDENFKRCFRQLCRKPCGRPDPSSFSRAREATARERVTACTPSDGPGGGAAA

[15] = target: T8, Kappa-type opioid receptor (Homo sapiens, UniProt P41145); assay: KOR agonist analogs, imaging readout, SAR follow-up, image-based (AID 2359); type: functional
T8 sequence (P41145 whole entry): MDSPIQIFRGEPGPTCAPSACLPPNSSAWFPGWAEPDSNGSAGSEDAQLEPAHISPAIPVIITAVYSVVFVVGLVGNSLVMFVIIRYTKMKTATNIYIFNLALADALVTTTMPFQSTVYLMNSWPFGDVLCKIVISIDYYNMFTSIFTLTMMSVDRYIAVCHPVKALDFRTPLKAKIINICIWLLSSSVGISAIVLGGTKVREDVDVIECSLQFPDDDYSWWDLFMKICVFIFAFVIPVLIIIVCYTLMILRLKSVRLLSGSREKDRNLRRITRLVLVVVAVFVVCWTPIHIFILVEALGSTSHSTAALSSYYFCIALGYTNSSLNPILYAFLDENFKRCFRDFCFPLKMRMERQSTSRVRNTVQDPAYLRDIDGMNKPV

[16] = target: T7, Delta-type opioid receptor; assay: DOR agonists, SAR follow-up, image-based (AID 2370); type: functional
[17] = target: T8, Kappa-type opioid receptor; assay: KOR antagonists by imaging, SAR follow-up, image-based (AID 2348); type: functional
[18] = target: T9, Mu-type opioid receptor (Homo sapiens, UniProt P35372); assay: MOR agonists by imaging, SAR follow-up, image-based (AID 2352); type: functional
T9 sequence (P35372 whole entry): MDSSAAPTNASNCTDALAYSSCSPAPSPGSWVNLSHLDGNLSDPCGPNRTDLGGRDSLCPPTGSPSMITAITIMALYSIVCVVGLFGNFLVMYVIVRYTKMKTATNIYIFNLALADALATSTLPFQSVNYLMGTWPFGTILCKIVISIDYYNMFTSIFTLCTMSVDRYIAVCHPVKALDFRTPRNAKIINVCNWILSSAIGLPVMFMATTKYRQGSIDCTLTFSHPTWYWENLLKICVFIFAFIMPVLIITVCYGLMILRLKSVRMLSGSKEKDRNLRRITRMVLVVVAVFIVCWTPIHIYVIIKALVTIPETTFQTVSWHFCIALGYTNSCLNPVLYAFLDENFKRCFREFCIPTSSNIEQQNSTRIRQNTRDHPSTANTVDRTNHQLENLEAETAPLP

[19] = target: T9, Mu-type opioid receptor; assay: MOR antagonists, SAR follow-up, image-based (AID 2420); type: functional;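 further: compounds added before stimulation of receptor with agonist DAMGO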
[20] = target: T8, Kappa-type opioid receptor; assay: kappa opioid receptor blockers, cell-based, luminescence, beta-arrestin, SAR follow-up (AID 2285); type: functional

Chain of Cytochrome P450 2D6 (P10635 whole entry): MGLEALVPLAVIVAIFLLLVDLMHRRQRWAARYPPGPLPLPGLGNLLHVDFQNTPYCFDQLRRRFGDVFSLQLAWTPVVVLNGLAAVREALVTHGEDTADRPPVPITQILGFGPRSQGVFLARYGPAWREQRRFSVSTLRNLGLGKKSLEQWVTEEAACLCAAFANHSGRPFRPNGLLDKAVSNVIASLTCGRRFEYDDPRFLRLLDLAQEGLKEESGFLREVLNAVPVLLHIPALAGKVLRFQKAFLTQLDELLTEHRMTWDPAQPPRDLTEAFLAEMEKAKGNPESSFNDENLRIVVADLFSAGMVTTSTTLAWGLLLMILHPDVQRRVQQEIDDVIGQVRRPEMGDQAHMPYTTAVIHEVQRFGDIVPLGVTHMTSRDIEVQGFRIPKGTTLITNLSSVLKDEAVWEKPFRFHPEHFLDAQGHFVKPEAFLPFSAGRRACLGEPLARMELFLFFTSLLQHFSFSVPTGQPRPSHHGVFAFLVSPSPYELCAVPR
Chain of Cytochrome P450 2C9 (P11712 whole entry): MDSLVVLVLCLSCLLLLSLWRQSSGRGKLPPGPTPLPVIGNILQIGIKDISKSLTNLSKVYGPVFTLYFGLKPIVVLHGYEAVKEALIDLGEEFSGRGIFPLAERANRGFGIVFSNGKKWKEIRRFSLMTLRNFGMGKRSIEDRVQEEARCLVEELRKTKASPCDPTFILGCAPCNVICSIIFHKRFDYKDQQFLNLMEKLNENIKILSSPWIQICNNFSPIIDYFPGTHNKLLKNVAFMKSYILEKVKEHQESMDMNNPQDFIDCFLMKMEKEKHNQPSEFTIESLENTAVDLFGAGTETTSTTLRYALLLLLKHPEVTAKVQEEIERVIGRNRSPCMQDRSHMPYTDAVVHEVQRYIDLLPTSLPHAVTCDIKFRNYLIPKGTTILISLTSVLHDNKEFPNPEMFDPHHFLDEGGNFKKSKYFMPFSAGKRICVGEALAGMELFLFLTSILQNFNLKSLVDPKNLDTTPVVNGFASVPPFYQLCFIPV

For `O=P(O)(CP(=O)(c1ccccc1)c1ccccc1)c1ccccc1O`, the AC50 [1] was 0.1 µM (inconclusive), the AC50 [2] was “inconclusive” and the AC50 [3] was 28.2 µM (inconclusive). For the same compound, the AC50 [4] was 17.8 µM (inconclusive).

In the case of `CC(C)=CCc1c(O)ccc2c1OC(c1ccc(O)c(O)c1)CC2=O` (stereo not given), the AC50 [5] is reported as 11.7 µM (active), the IC50 [6] is reported as 11.5 µM (active) and the EC50 [7] is reported as > 99 µM (inactive). For the same compound, the IC50 [8] was 1.97 µM (active), the IC50 [9] was 88.8 µM (active) and the EC50 [10] was > 99 µM (inactive). The IC50 [11] was 6.64 µM (active) and the AC50 [12] was 3.68 µM (active).

In the case of `COc1ccc(C=C2C(=O)c3ccccc3C2=O)cc1O`, the IC50 [6] is reported as 15 µM (active), the IC50 [8] is reported as 15.6 µM (active) and the IC50 [13] is reported as 46.8 µM (active). The IC50 [9] was 15.6 µM (active), the IC50 [11] was 12.7 µM (inactive) and the AC50 [12] was 1.7 µM (active).

With `CC(=O)Nc1ccc(S(=O)(=O)NCc2ccc(C(=O)NCCN(C)Cc3ccccc3)cc2)cc1` the IC50 [14] was > 32 µM (inactive), the EC50 [15] was > 32 µM (inactive) and the EC50 [16] was > 32 µM (inactive). The IC50 [17] was > 32 µM (inactive), the EC50 [18] was > 32 µM (inactive) and the IC50 [19] was > 32 µM (inactive). For the same compound, the IC50 [20] was > 10 µM (inactive).
